These results are taken from patent US8063071B2 (GlaxoSmithKline, LLC, priority 2007, dated 2011).

SMILES strings stand for the structures. Counter-ions that a name gives are not always drawn. Some results are limits rather than exact numbers.

Assay [1] concerns the target T1, Recombinant human IKKβ (residues 1-737) (Homo sapiens, UniProt O14920).
T1 construct: Recombinant human IKKβ (residues 1-737); GST (C); made in house
T1 sequence (O14920 1-737): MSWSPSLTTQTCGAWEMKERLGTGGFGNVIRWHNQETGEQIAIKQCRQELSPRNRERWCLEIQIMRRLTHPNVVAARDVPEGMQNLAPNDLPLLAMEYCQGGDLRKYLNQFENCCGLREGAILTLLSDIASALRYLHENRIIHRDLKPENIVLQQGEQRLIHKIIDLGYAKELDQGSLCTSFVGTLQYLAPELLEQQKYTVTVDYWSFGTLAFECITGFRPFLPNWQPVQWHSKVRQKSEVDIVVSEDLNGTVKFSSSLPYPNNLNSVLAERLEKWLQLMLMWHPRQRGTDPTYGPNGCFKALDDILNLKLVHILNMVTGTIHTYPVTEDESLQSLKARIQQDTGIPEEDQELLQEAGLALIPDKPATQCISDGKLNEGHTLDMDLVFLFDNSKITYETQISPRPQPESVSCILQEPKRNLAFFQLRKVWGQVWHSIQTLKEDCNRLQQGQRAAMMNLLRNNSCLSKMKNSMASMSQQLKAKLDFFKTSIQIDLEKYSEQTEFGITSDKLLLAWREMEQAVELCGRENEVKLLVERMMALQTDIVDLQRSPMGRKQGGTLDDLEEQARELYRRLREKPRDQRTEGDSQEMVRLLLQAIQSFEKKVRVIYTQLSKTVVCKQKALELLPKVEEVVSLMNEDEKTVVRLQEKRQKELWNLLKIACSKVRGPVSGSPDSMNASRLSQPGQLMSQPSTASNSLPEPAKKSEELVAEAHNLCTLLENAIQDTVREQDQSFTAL
Kind of assay: IKK2 assay (TR-FRET). To be noted: ATP 1 μM final, read-out: pIC50 against IKK2 (converted). It counts as biochemical. The method in brief: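 TR-FRET readout (665 nm over 620 nm Eu reference) of GST-IB Ser32/36 phosphorylation after 60 min detection. Reaction: 1 μM ATP, 25 nM substrate, 0.5-5 nM GST-fused IKKβ 1-737 from baculovirus, pH 7.4 HEPES buffer, 1.7% DMSO, 15 min room temperature, EDTA-terminated.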
A general note: In TR-FRET formats the signal depends on donor and acceptor labels being close together.

Assay [2] has as its system human monocyte stimulated cytokine production (TNF-α). Kind of assay: Monocyte assay (LPS-stimulated TNF-α production). It counts as cell-based. Particulars: 24 h, 200 ng/mL LPS, TNF-α by ELISA. The method in brief: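 TNF-α release was measured by ELISA after 24 hrs at 37 C. Cells were stimulated with 200 ng/mL E. coli LPS, with compound added 30 minutes beforehand (0.1% DMSO vehicle). Cells were Ficoll/MACS-isolated CD14+ human monocytes adhered at 1×10^6 cells/mL, and viability was checked by trypan blue.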
On the technique in general: In an ELISA, binding on a coated surface is turned into a signal by an enzyme label.

`CCS(=O)(=O)N1CCC(c2c[nH]c3c(C(N)=O)cc(-c4nc(CN5CCCC5)cs4)cc23)CC1` [Example 251, 3-[1-(ethylsulfonyl)-4-piperidinyl]-5-[4-(1-pyrrolidinylmethyl)-1,3-thiazol-2-yl]-1H-indole-7-carboxamide trifluoroacetate]: the IC50 in assay [1] is ≤ 10 µM; in assay [2] it was ≤ 1.5 µM.

With `CCS(=O)(=O)N1CCC(c2c[nH]c3c(C(N)=O)cc(-c4cnn(CCN5CCCC5)c4)cc23)CC1` [Example 253, 3-[1-(ethylsulfonyl)-4-piperidinyl]-5-{1-[2-(1-pyrrolidinyl)ethyl]-1H-pyrazol-4-yl}-1H-indole-7-carboxamide trifluoroacetate], the IC50 is ≤ 10 µM in assay [1] and > 1 µM in assay [2].

With `CCS(=O)(=O)N1CCC(c2c[nH]c3c(C(N)=O)cc(-c4cnn(CCN5CCOCC5)c4)cc23)CC1` [Example 254, 3-[1-(ethylsulfonyl)-4-piperidinyl]-5-{1-[2-(4-morpholinyl)ethyl]-1H-pyrazol-4-yl}-1H-indole-7-carboxamide trifluoroacetate], the IC50 in assay [1] was ≤ 10 µM; in assay [2], > 1 µM.

`CCS(=O)(=O)N1CCC(c2c[nH]c3c(C(N)=O)cc(-c4cnn(CCNCCO)c4)cc23)CC1` [Example 255, 3-[1-(ethylsulfonyl)-4-piperidinyl]-5-(1-{2-[(2-hydroxyethyl)amino]ethyl}-1H-pyrazol-4-yl)-1H-indole-7-carboxamide trifluoroacetate]: the results for the IC50 in assay [1] and in assay [2] were ≤ 10 µM and > 1 µM, respectively.

With `CCCCNCCn1cc(-c2cc(C(N)=O)c3[nH]cc(C4CCN(S(=O)(=O)CC)CC4)c3c2)cn1` [Example 256, 5-{1-[2-(butylamino)ethyl]-1H-pyrazol-4-yl}-3-[1-(ethylsulfonyl)-4-piperidinyl]-1H-indole-7-carboxamide trifluoroacetate], the IC50 in assay [1] is ≤ 10 µM; in assay [2], > 1 µM.

On to `CCS(=O)(=O)N1CCC(c2c[nH]c3c(C(N)=O)cc(-c4cnn(CCNC5CCC5)c4)cc23)CC1` [Example 257, 5-{1-[2-(cyclobutylamino)ethyl]-1H-pyrazol-4-yl}-3-[1-(ethylsulfonyl)-4-piperidinyl]-1H-indole-7-carboxamide trifluoroacetate], for which the results for the IC50 in assay [1] and in assay [2] were ≤ 10 µM and > 1 µM, respectively.

For `CCN(CC)CCNCCn1cc(-c2cc(C(N)=O)c3[nH]cc(C4CCN(S(=O)(=O)CC)CC4)c3c2)cn1` [Example 258, 5-[1-(2-{[2-(diethylamino)ethyl]amino}ethyl)-1H-pyrazol-4-yl]-3-[1-(ethylsulfonyl)-4-piperidinyl]-1H-indole-7-carboxamide trifluoroacetate], the IC50 in assay [1] is ≤ 10 µM; in assay [2], > 1 µM.

With `CCS(=O)(=O)N1CCC(c2c[nH]c3c(C(N)=O)cc(-c4cnn(CCNC(C)C)c4)cc23)CC1` [Example 259, 3-[1-(ethylsulfonyl)-4-piperidinyl]-5-(1-{2-[(1-methylethyl)amino]ethyl}-1H-pyrazol-4-yl)-1H-indole-7-carboxamide trifluoroacetate], the IC50 in assay [1] was ≤ 10 µM; in assay [2], > 1 µM.

As to `CCS(=O)(=O)N1CCC(c2c[nH]c3c(C(N)=O)cc(-c4cnn(CCNCC(C)C)c4)cc23)CC1` [Example 260, 3-[1-(ethylsulfonyl)-4-piperidinyl]-5-(1-{2-[(2-methylpropyl)amino]ethyl}-1H-pyrazol-4-yl)-1H-indole-7-carboxamide trifluoroacetate], the IC50 in assay [1] is ≤ 10 µM; in assay [2], > 1 µM.

For the compound `CCS(=O)(=O)N1CCC(c2c[nH]c3c(C(N)=O)cc(-c4ccc(OC)c(CN5CCCC5)c4)cc23)CC1` [Example 262, 3-[1-(ethylsulfonyl)-4-piperidinyl]-5-[4-(methyloxy)-3-(1-pyrrolidinylmethyl)phenyl]-1H-indole-7-carboxamide trifluoroacetate], the IC50 in assay [1] was ≤ 10 µM; in assay [2] it was > 1 µM.

Consider `CCS(=O)(=O)N1CCC(c2c[nH]c3c(C(N)=O)cc(-c4ccc(F)c(CNC)c4)cc23)CC1` [Example 269, 3-[1-(ethylsulfonyl)-4-piperidinyl]-5-{4-fluoro-3-[(methylamino)methyl]phenyl}-1H-indole-7-carboxamide trifluoroacetate], for which the IC50 in assay [1] is ≤ 10 µM; in assay [2] it was ≤ 1.5 µM.

Consider `CCS(=O)(=O)N1CCC(c2c[nH]c3c(C(N)=O)cc(-c4cc(CNC)cc(CNC)c4)cc23)CC1` [Example 270, 5-{3,5-bis[(methylamino)methyl]phenyl}-3-[1-(ethylsulfonyl)-4-piperidinyl]-1H-indole-7-carboxamide trifluoroacetate], for which the IC50 was ≤ 10 µM in assay [1] and > 1 µM in assay [2].

For `CCNCc1cc(-c2cc(C(N)=O)c3[nH]cc(C4CCN(S(=O)(=O)CC)CC4)c3c2)ccc1F` [Example 271, 5-{3-[(ethylamino)methyl]-4-fluorophenyl}-3-[1-(ethylsulfonyl)-4-piperidinyl]-1H-indole-7-carboxamide trifluoroacetate], the values for the IC50 in assay [1] and in assay [2] were ≤ 10 µM and ≤ 1.5 µM, respectively.

On to `CCS(=O)(=O)N1CCC(c2c[nH]c3c(C(N)=O)cc(-c4ccc(F)c(CNC(CO)CO)c4)cc23)CC1` [Example 272, 3-[1-(ethylsulfonyl)-4-piperidinyl]-5-[4-fluoro-3-({[2-hydroxy-1-(hydroxymethyl)ethyl]amino}methyl)phenyl]-1H-indole-7-carboxamide trifluoroacetate (salt)], for which the values for the IC50 in assay [1] and in assay [2] were ≤ 10 µM and > 1 µM, respectively.

`CCS(=O)(=O)N1CCC(c2c[nH]c3c(C(N)=O)cc(-c4ccc(F)c(CN[C@@H](C)CO)c4)cc23)CC1` [Example 273, 3-[1-(ethylsulfonyl)-4-piperidinyl]-5-[4-fluoro-3-({[(1S)-2-hydroxy-1-methylethyl]amino}methyl)phenyl]-1H-indole-7-carboxamide trifluoroacetate (salt)]: the results for the IC50 in assay [1] and in assay [2] were ≤ 10 µM and ≤ 1.5 µM, respectively.

Turning to `CCS(=O)(=O)N1CCC(c2c[nH]c3c(C(N)=O)cc(-c4ccc(F)c(CNC5CC5)c4)cc23)CC1` [Example 274, 5-{3-[(cyclopropylamino)methyl]-4-fluorophenyl}-3-[1-(ethylsulfonyl)-4-piperidinyl]-1H-indole-7-carboxamide trifluoroacetate], the IC50 in assay [1] is ≤ 10 µM; in assay [2] it was ≤ 1.5 µM.

Regarding `CCS(=O)(=O)N1CCC(c2c[nH]c3c(C(N)=O)cc(-c4ccc(F)c(CNC5CCC5)c4)cc23)CC1` [Example 275, 5-{3-[(cyclobutylamino)methyl]-4-fluorophenyl}-3-[1-(ethylsulfonyl)-4-piperidinyl]-1H-indole-7-carboxamide trifluoroacetate], the results for the IC50 in assay [1] and in assay [2] were ≤ 10 µM and ≤ 1.5 µM, respectively.

Take `CCS(=O)(=O)N1CCC(c2c[nH]c3c(C(N)=O)cc(-c4cccc(CN5CCCC5)c4)cc23)CC1` [Example 276, 3-[1-(ethylsulfonyl)-4-piperidinyl]-5-[3-(1-pyrrolidinylmethyl)phenyl]-1H-indole-7-carboxamide trifluoroacetate]: the IC50 in assay [1] is ≤ 10 µM; in assay [2], ≤ 1.5 µM.

For the compound `CCS(=O)(=O)N1CCC(c2c[nH]c3c(C(N)=O)cc(-c4cccc(C(C)NC)c4)cc23)CC1` (centres unmarked) [Example 292, 3-[1-(ethylsulfonyl)-4-piperidinyl]-5-{3-[1-(methylamino)ethyl]phenyl}-1H-indole-7-carboxamide trifluoroacetate], the IC50 in assay [1] was ≤ 10 µM; in assay [2], ≤ 1.5 µM.
